Test results published in PMC9207808 (ACS Chemical Biology, 2022).
Entries after “also recorded” stand apart in the source; their conditions may differ. Residues, ends and D or L forms follow the SMILES beside them.

Key:
[1] = system: S. Typhimurium (14028) Δphd-doc::Km strains coexpressing DocSTm; assay: Growth rescue experiment in S. Typhimurium; assay type: cell-based; conditions: coexpression of DocSTm (pBAD33, arabinose) and Phd construct (pCA24N, basal expression); OD600 over time, M9 minimal medium; average of three independent experiments
Description: The cotransformations above were also performed with an empty pBAD33 plasmid, as a control for the absence of DocSTm expression.
For the growth rescue experiment, overnight (1% tryptone, 0.5% yeast extract, 0.5% NaCl, 1% glucose, 100 μg/mL of carbenicillin, and 34 μg/mL of chloramphenicol) cultures of the generated S. Typhimurium strains were diluted to an OD600 of approximately 0.006 into fresh M9 minimal medium supplemented with 0.5% or 1% arabinose, 0.4% glycerol, 0.4% casamino acids, 100 μg/mL of carbenicillin, and 34 μg/mL of chloramphenicol. Cell growth at a given time was monitored at OD600 with a Genesys 140 Visible Spectrophotometer (Thermo Scientific).

DocSTm [2] = assay: Surface plasmon resonance binding to immobilised Doc; design: species or system S. Typhimurium; conditions: for fold decrease in affinity (given as decrease/loss in Kd) compared with peptide 1: SPR Kd relative to wild-type peptide 1; for koff × 10^-6 / kon × 10^6: 1:1 kinetic fit, mean ± SD of at least 3 replicates; for kon × 10^6: single-cycle kinetics (multicycle for PhdSTm1-73); for Half-life of the complex: t1/2 = ln2 / koff
In short: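 Doc captured on an NTA chip at 22 °C in 10 mM HEPES, 500 mM NaCl, 50 μM EDTA, 0.005% TWEEN 20, pH 8.0. Analytes injected as 80 s pulses at 30 μL/min in multicycle or single-cycle kinetics.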

DocSTm [3] = assay: Differential scanning fluorimetry (thermal stabilisation of Doc); assay type: binding, S. Typhimurium; conditions: for melting temperature shift ΔTm: DSF, DocSTm 5 μM, analyte 50 μM, Tm with analyte minus Tm of free DocSTm (42.9 ± 0.9 °C), SYPRO Orange, 20 mM K2HPO4, 50 mM (NH4)2SO4, pH 8.0, triplicate; for Average Tm: average of 3 replicates
In short: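 Thermal shift of 5 μM Doc in 20 mM K2HPO4, 50 mM (NH4)2SO4, pH 8.0 with 3× SYPRO Orange, heated from 25 to 95 °C in a qPCR instrument, in triplicate. Melting temperatures from Boltzmann sigmoid fits of the transition region.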

DocSTm [4] = assay: Dot blot phosphorylation assay (EF-Tu phosphorylation by Doc); assay type: biochemical, S. Typhimurium; conditions: α-pThr, DocSTm 1 μM, EF-TuSTm 3 μM, ATP 1 mM, inhibitor 10 μM to 5 nM (3-fold dilutions), 16 h at RT
Description: Samples were prepared to a final volume of 10 μL. […] Samples were incubated for 16 h at RT and subsequently spotted on a nitrocellulose membrane. Phosphorylated EF-Tu was detected by immunodecoration using a rabbit monoclonal antiphosphothreonine antibody (Abcam, ab218195) at 1:2000 dilution (1 h at 4 °C), followed by incubation with a goat antirabbit IgG (H+L) HRP conjugate antibody (Advansta) at 1:10 000 dilution (1 h at RT). Chemiluminescence was developed using the HRP Luminata kit (Merck, WBLUR0100) and captured by an ImageQuant LAS4000 Western blot imaging system (Cytiva).

[5] = SPR multicycle, steady-state fit, replicate 1
[6] = SPR multicycle, steady-state fit, replicate 2
[7] = SPR multicycle, steady-state fit, replicate 3
[8] = SPR, multicycle kinetics, steady-state 1:1 fit, mean ± SD of 3 replicates
[9] = DocSTm 5 µM + 50 µM binder, replicate 1
[10] = DocSTm 5 µM + 50 µM binder, replicate 2
[11] = DocSTm 5 µM + 50 µM binder, replicate 3
[12] = SPR, kinetic fit, KD calculated from mean koff and kon, SD propagated, 22 °C, pH 8.0

Row | Compound | rescue of Salmonella growth from DocSTm-induced growth inhibition (in words) [1] | fold decrease in affinity (given as decrease/loss in Kd) compared with peptide 1 (DocSTm [2]) | Kd (DocSTm [2]; [5]) | Kd (DocSTm [2]; [6]) | Kd (DocSTm [2]; [7]) | Kd (DocSTm [2]; [8]) | melting temperature shift ΔTm (DocSTm [3]) | Average Tm (DocSTm [3]; DocSTm 5 µM + 50 µM binder) | Tm (DocSTm [3]; [9]) | Tm (DocSTm [3]; [10]) | Tm (DocSTm [3]; [11]) | Kd (DocSTm [2]; SPR kinetic fit, replicate 1) | Kd (DocSTm [2]; SPR kinetic fit, replicate 2) | Kd (DocSTm [2]; SPR kinetic fit, replicate 3) | koff × 10^-6 (DocSTm [2]; SPR, 22 °C, pH 8.0) | kon × 10^6 (DocSTm [2]; SPR, 22 °C, pH 8.0) | Kd (DocSTm [2]; [12]) | Half-life of the complex (DocSTm [2]) | inhibition of EF-TuSTm phosphorylation by DocSTm (in words) (DocSTm [4]) | other results
1 | CSCC[C@H](NC(=O)[C@H](C)NC(=O)[C@H](C)NC(=O)[C@H](C)NC(=O)[C@H](Cc1ccccc1)NC(=O)[C@H](CCC(=O)O)NC(=O)[C@H](CC(=O)O)NC(=O)[C@H](CC(=O)O)NC(=O)[C@H](CCSC)NC(=O)[C@H](Cc1c[nH]c2ccccc12)NC(C)=O)C(=O)N[C@@H](C)C(=O)N[C@H](C(=O)N[C@@H](Cc1c[nH]cn1)C(=O)NCC(=O)N[C@@H](CC(N)=O)C(=O)N[C@@H](CCC(=O)O)C(=O)N[C@@H](CC(C)C)C(=O)N[C@@H](CCCNC(=N)N)C(=O)N[C@@H](CCC(=O)O)C(=O)N[C@@H](CC(C)C)C(=O)N[C@@H](C)C(=O)N[C@@H](CC(=O)O)C(=O)N[C@@H](CCCCN)C(=O)O)C(C)C [peptide 7] (Ac-WMDDEFAAAMAVHGNELRELADK-OH; C-terminus assumed) | unable to rescue growth | ~300 fold | 25.4 ± 3 nM | 19.4 ± 2.2 nM | 15.1 ± 0.09 nM | 19.9 ± 5.18 nM | 15.5 ± 1.5 °C | 58.4 ± 1.2 °C | 59.7 °C | 57.7 °C | 57.6 °C | – | – | – | – | – | – | – | – | –
2 | CC[C@H](C)[C@H](NC(=O)[C@H](C)NC(=O)[C@H](C)NC(=O)[C@H](Cc1ccccc1)NC(=O)[C@H](CCC(=O)O)NC(=O)[C@H](CC(=O)O)NC(=O)[C@H](CC(=O)O)NC(=O)[C@H](CCSC)NC(=O)[C@H](Cc1c[nH]c2ccccc12)NC(C)=O)C(=O)N[C@@H](C)C(=O)N[C@@H](C)C(=O)N[C@H](C(=O)N[C@@H](Cc1c[nH]cn1)C(=O)NCC(=O)N[C@@H](CC(N)=O)C(=O)N[C@@H](CCC(=O)O)C(=O)N[C@@H](CC(C)C)C(=O)N[C@@H](CCCNC(=N)N)C(=O)N[C@@H](CCC(=O)O)C(=O)N[C@@H](CC(C)C)C(=O)N[C@@H](C)C(=O)N[C@@H](CC(=O)O)C(=O)N[C@@H](CCCCN)C(=O)O)C(C)C [peptide 8] (Ac-WMDDEFAAIAAVHGNELRELADK-OH; C-terminus assumed) | fully rescued Salmonella growth after 18 h of culture | 8- to 30 fold | – | – | – | – | 20.8 ± 1.0 °C | 63.7 ± 0.4 °C | 64.1 °C | 63.3 °C | 63.7 °C | 0.67 nM | 0.611 nM | 0.485 nM | 1223 ± 504 ×10^-6 s-1 | 2.221 ± 1.307 ×10^6 M-1 s-1 | 0.553 ± 0.397 nM | 9.6 ± 36 min | – | –
3 | CC[C@H](C)[C@H](NC(=O)[C@H](C)NC(=O)[C@H](C)NC(=O)[C@H](Cc1ccccc1)NC(=O)[C@H](CCC(=O)O)NC(=O)[C@H](CC(=O)O)NC(=O)[C@H](CC(=O)O)NC(=O)[C@H](CCSC)NC(=O)[C@H](Cc1c[nH]c2ccccc12)NC(C)=O)C(=O)N[C@@H](CCSC)C(=O)N[C@@H](C)C(=O)N[C@H](C(=O)N[C@@H](C)C(=O)NCC(=O)N[C@@H](CC(N)=O)C(=O)N[C@@H](CCC(=O)O)C(=O)N[C@@H](CC(C)C)C(=O)N[C@@H](CCCNC(=N)N)C(=O)N[C@@H](CCC(=O)O)C(=O)N[C@@H](CC(C)C)C(=O)N[C@@H](C)C(=O)N[C@@H](CC(=O)O)C(=O)N[C@@H](CCCCN)C(=O)O)C(C)C [peptide 10] (Ac-WMDDEFAAIMAVAGNELRELADK-OH; C-terminus assumed) | provided only a partial rescue | ~300 fold | 12.2 ± 1.8 nM | 13.1 ± 1.4 nM | 40 ± 2.87 nM | 21.8 ± 15.8 nM | 20.9 ± 1.0 °C | 63.7 ± 0.4 °C | 63.3 °C | 63.7 °C | 64.2 °C | – | – | – | – | – | – | – | – | –
4 | CC[C@H](C)[C@H](NC(=O)[C@H](C)NC(=O)[C@H](C)NC(=O)[C@H](Cc1ccccc1)NC(=O)[C@H](CCC(=O)O)NC(=O)[C@H](CC(=O)O)NC(=O)[C@H](CC(=O)O)NC(=O)[C@H](CCSC)NC(=O)[C@H](Cc1c[nH]c2ccccc12)NC(C)=O)C(=O)N[C@@H](CCSC)C(=O)N[C@@H](C)C(=O)N[C@H](C(=O)N[C@@H](Cc1c[nH]cn1)C(=O)NCC(=O)N[C@@H](CC(N)=O)C(=O)N[C@@H](CCC(=O)O)C(=O)N[C@@H](C)C(=O)N[C@@H](CCCNC(=N)N)C(=O)N[C@@H](CCC(=O)O)C(=O)N[C@@H](CC(C)C)C(=O)N[C@@H](C)C(=O)N[C@@H](CC(=O)O)C(=O)N[C@@H](CCCCN)C(=O)O)C(C)C [peptide 14] (Ac-WMDDEFAAIMAVHGNEARELADK-OH; C-terminus assumed) | unable to rescue growth | ~300 fold | 25 ± 0.5 nM | 23.9 ± 0.94 nM | 15.4 ± 2.13 nM | 21.4 ± 5.25 nM | 14.3 ± 0.9 °C | 57.2 ± 0.2 °C | 57.4 °C | 57.2 °C | 57.0 °C | – | – | – | – | – | – | – | – | –
5 | CC[C@H](C)[C@H](NC(=O)[C@H](C)NC(=O)[C@H](C)NC(=O)[C@H](Cc1ccccc1)NC(=O)[C@H](Cc1c[nH]c2ccccc12)NC(C)=O)C(=O)N[C@@H](CCSC)C(=O)N[C@@H](C)C(=O)N[C@H](C(=O)N[C@@H](Cc1c[nH]cn1)C(=O)NCC(=O)N[C@@H](CC(N)=O)C(=O)N[C@@H](CCC(=O)O)C(=O)N[C@@H](CC(C)C)C(=O)N[C@@H](CCCNC(=N)N)C(=O)N[C@@H](CCC(=O)O)C(=O)N[C@@H](CC(C)C)C(=O)O)C(C)C [peptide 23] (Ac-WFAAIMAVHGNELREL-OH; N-terminus and C-terminus assumed) | – | 30 fold | – | – | – | – | 7.9 ± 1.0 °C | 50.7 ± 0.3 °C | 50.54 °C | 50.60 °C | 51.08 °C | 1.85 nM | 1.94 nM | 2.18 nM | 2794 ± 42 ×10^-6 s-1 | 1.413 ± 0.136 ×10^6 M-1 s-1 | 1.98 ± 0.193 nM | 4.14 ± 0.06 min | inactive in all concentrations tested; also recorded: poor DocSTm inhibitors | –
6 | Ac-WNELRELADK-OH [compound 25] | – | – | – | – | – | – | 1.3 ± 0.9 °C | 44.2 ± 0.1 °C | 44.1 °C | 44.2 °C | 44.4 °C | – | – | – | – | – | – | – | inactive | binding to DocSTm by SPR (in words) (DocSTm [2]; SPR): Affinity was too weak to be determined by SPR; also recorded: no measurable affinities could be obtained by SPR; Average Tm (DocSTm [3]; DocSTm 5 µM + 100 µM peptide): 43.3 ± 0.1 °C; Tm (DocSTm [3]; DocSTm 5 µM + 100 µM peptide, replicate 1): 43.2 °C; Tm (DocSTm [3]; DocSTm 5 µM + 100 µM peptide, replicate 2): 43.2 °C; Tm (DocSTm [3]; DocSTm 5 µM + 100 µM peptide, replicate 3): 43.4 °C
